Laboratory results as given in US4243408A, “Herbicidal N-triazolylmethyl-substituted alpha-haloacetanilide” (Chevron Research Company, priority 1978, dated 1981).

tested on: Crabgrass (Digitaria sanguinalis); assay: Pre-Emergent Test, herbicidal effectiveness; format: in vivo; conditions: pre-emergence, 504 h, 11 micrograms per cm^2, 3 weeks, 0-to-100 scale, read-out: Herbicidal Effectiveness, % Control Pre, C
Protocol: (§1) An acetone solution of the test compound was prepared by mixing 750 mg of the compound, 220 mg of a nonionic surfactant and 25 ml of acetone. This solution was added to approximately 125 ml of water containing 156 mg of surfactant.
(§2) Seeds of the test vegetation were planted in a pot of soil and the test solution was sprayed uniformly onto the soil surface at a dose of 33 micrograms/cm^2. The pot was watered and placed in a greenhouse. […] At the end of this period, the herbicidal effectiveness of the compound was rated based on the physiological observations. A 0-to-100 scale was used, 0 representing no phytotoxicity, 100 representing complete kill.

| Compound | pest or weed control at 11 µg/cm2 [%] |
| --- | --- |
| CCc1nnc(CN(C(=O)CCl)c2c(CC)cccc2CC)[nH]1 [Compound 8B] | 100 |

same assay, conditions: pre-emergence, 504 h, 33 micrograms per cm^2, 3 weeks, 0-to-100 scale, read-out: Herbicidal Effectiveness, % Control Pre, C

| Compound | pest or weed control at 33 µg/cm2 [%] |
| --- | --- |
| Cc1cccc(C)c1NCc1nnc(S)[nH]1 [Compound 18A] | 0 |
| CCc1cccc(C)c1N(Cc1nnc[nH]1)C(=O)CCl [Compound 17B] | 100 |
| Cc1nnc(C(C)Nc2c(C)cccc2C)[nH]1 (stereo not drawn) [Compound 11A] | 0 |
| CCc1cccc(CC)c1NCc1nnc(C)[nH]1 [Compound 5A] | 0 |
| Cc1nnc(CN(C(=O)CCl)c2c(C)cccc2C)o1 [Compound 1B, N-(5-methyl-1,3,4-oxadiazol-2-ylmethyl)-2,6-dimethyl-alpha-chloroacetanilide] | 100 |
| Cc1cccc(C)c1N(Cc1nnc(S)[nH]1)C(=O)CCl [Compound 18B] | 0 |

tested on: Lambsquarter (Chenopodium album); assay: Pre-Emergent Test, herbicidal effectiveness; format: in vivo; conditions: pre-emergence, 504 h, 11 micrograms per cm^2, 3 weeks, 0-to-100 scale, read-out: Herbicidal Effectiveness, % Control Pre, L
Protocol: as §1, §2

| Compound | pest or weed control at 11 µg/cm2 [%] |
| --- | --- |
| CCc1nnc(CN(C(=O)CCl)c2c(CC)cccc2CC)[nH]1 [Compound 8B] | 100 |

same assay, conditions: pre-emergence, 504 h, 33 micrograms per cm^2, 3 weeks, 0-to-100 scale, read-out: Herbicidal Effectiveness, % Control Pre, L

| Compound | pest or weed control at 33 µg/cm2 [%] |
| --- | --- |
| Cc1cccc(C)c1NCc1nnc(S)[nH]1 [Compound 18A] | 0 |
| CCc1cccc(C)c1N(Cc1nnc[nH]1)C(=O)CCl [Compound 17B] | 100 |
| Cc1nnc(C(C)Nc2c(C)cccc2C)[nH]1 (stereo not drawn) [Compound 11A] | 0 |
| CCc1cccc(CC)c1NCc1nnc(C)[nH]1 [Compound 5A] | 0 |
| Cc1nnc(CN(C(=O)CCl)c2c(C)cccc2C)o1 [Compound 1B, N-(5-methyl-1,3,4-oxadiazol-2-ylmethyl)-2,6-dimethyl-alpha-chloroacetanilide] | 50 |
| Cc1cccc(C)c1N(Cc1nnc(S)[nH]1)C(=O)CCl [Compound 18B] | 0 |

tested on: Mustard (Brassica arvensis); assay: Pre-Emergent Test, herbicidal effectiveness; format: in vivo; conditions: pre-emergence, 504 h, 11 micrograms per cm^2, 3 weeks, 0-to-100 scale
Protocol: as §1, §2

| Compound | pest or weed control at 11 µg/cm2 [%] |
| --- | --- |
| CCc1nnc(CN(C(=O)CCl)c2c(CC)cccc2CC)[nH]1 [Compound 8B] | 83 |

same assay, conditions: pre-emergence, 504 h, 33 micrograms per cm^2, 3 weeks, 0-to-100 scale

| Compound | pest or weed control at 33 µg/cm2 [%] |
| --- | --- |
| Cc1cccc(C)c1NCc1nnc(S)[nH]1 [Compound 18A] | 0 |
| CCc1cccc(C)c1N(Cc1nnc[nH]1)C(=O)CCl [Compound 17B] | 90 |
| Cc1nnc(C(C)Nc2c(C)cccc2C)[nH]1 (stereo not drawn) [Compound 11A] | 0 |
| CCc1cccc(CC)c1NCc1nnc(C)[nH]1 [Compound 5A] | 0 |
| Cc1nnc(CN(C(=O)CCl)c2c(C)cccc2C)o1 [Compound 1B, N-(5-methyl-1,3,4-oxadiazol-2-ylmethyl)-2,6-dimethyl-alpha-chloroacetanilide] | 45 |
| Cc1cccc(C)c1N(Cc1nnc(S)[nH]1)C(=O)CCl [Compound 18B] | 0 |

tested on: Pigweed (Amaranthus retroflexus); assay: Pre-Emergent Test, herbicidal effectiveness; format: in vivo; conditions: pre-emergence, 504 h, 11 micrograms per cm^2, 3 weeks, 0-to-100 scale, read-out: Herbicidal Effectiveness, % Control Pre, P
Protocol: as §1, §2

| Compound | pest or weed control at 11 µg/cm2 [%] |
| --- | --- |
| CCc1nnc(CN(C(=O)CCl)c2c(CC)cccc2CC)[nH]1 [Compound 8B] | 90 |

same assay, conditions: pre-emergence, 504 h, 33 micrograms per cm^2, 3 weeks, 0-to-100 scale, read-out: Herbicidal Effectiveness, % Control Pre, P

| Compound | pest or weed control at 33 µg/cm2 [%] |
| --- | --- |
| Cc1cccc(C)c1NCc1nnc(S)[nH]1 [Compound 18A] | 0 |
| CCc1cccc(C)c1N(Cc1nnc[nH]1)C(=O)CCl [Compound 17B] | 95 |
| Cc1nnc(C(C)Nc2c(C)cccc2C)[nH]1 (stereo not drawn) [Compound 11A] | 0 |
| CCc1cccc(CC)c1NCc1nnc(C)[nH]1 [Compound 5A] | 0 |
| Cc1nnc(CN(C(=O)CCl)c2c(C)cccc2C)o1 [Compound 1B, N-(5-methyl-1,3,4-oxadiazol-2-ylmethyl)-2,6-dimethyl-alpha-chloroacetanilide] | 87 |
| Cc1cccc(C)c1N(Cc1nnc(S)[nH]1)C(=O)CCl [Compound 18B] | 0 |

tested on: Watergrass (Echinochloa); assay: Pre-Emergent Test, herbicidal effectiveness; format: in vivo; conditions: pre-emergence, 504 h, 11 micrograms per cm^2, 3 weeks, 0-to-100 scale, read-out: Herbicidal Effectiveness, % Control Pre, W
Protocol: as §1, §2

| Compound | pest or weed control at 11 µg/cm2 [%] |
| --- | --- |
| CCc1nnc(CN(C(=O)CCl)c2c(CC)cccc2CC)[nH]1 [Compound 8B] | 100 |

same assay, conditions: pre-emergence, 504 h, 33 micrograms per cm^2, 3 weeks, 0-to-100 scale, read-out: Herbicidal Effectiveness, % Control Pre, W

| Compound | pest or weed control at 33 µg/cm2 [%] |
| --- | --- |
| Cc1cccc(C)c1NCc1nnc(S)[nH]1 [Compound 18A] | 0 |
| CCc1cccc(C)c1N(Cc1nnc[nH]1)C(=O)CCl [Compound 17B] | 100 |
| Cc1nnc(C(C)Nc2c(C)cccc2C)[nH]1 (stereo not drawn) [Compound 11A] | 0 |
| CCc1cccc(CC)c1NCc1nnc(C)[nH]1 [Compound 5A] | 0 |
| Cc1nnc(CN(C(=O)CCl)c2c(C)cccc2C)o1 [Compound 1B, N-(5-methyl-1,3,4-oxadiazol-2-ylmethyl)-2,6-dimethyl-alpha-chloroacetanilide] | 100 |
| Cc1cccc(C)c1N(Cc1nnc(S)[nH]1)C(=O)CCl [Compound 18B] | 0 |

tested on: Wild Oats (Avena fatua); assay: Pre-Emergent Test, herbicidal effectiveness; format: in vivo; conditions: pre-emergence, 504 h, 11 micrograms per cm^2, 3 weeks, 0-to-100 scale, read-out: Herbicidal Effectiveness, % Control Pre, O
Protocol: as §1, §2

| Compound | pest or weed control at 11 µg/cm2 [%] |
| --- | --- |
| CCc1nnc(CN(C(=O)CCl)c2c(CC)cccc2CC)[nH]1 [Compound 8B] | 99 |

same assay, conditions: pre-emergence, 504 h, 33 micrograms per cm^2, 3 weeks, 0-to-100 scale, read-out: Herbicidal Effectiveness, % Control Pre, O

| Compound | pest or weed control at 33 µg/cm2 [%] |
| --- | --- |
| Cc1cccc(C)c1NCc1nnc(S)[nH]1 [Compound 18A] | 0 |
| CCc1cccc(C)c1N(Cc1nnc[nH]1)C(=O)CCl [Compound 17B] | 100 |
| Cc1nnc(C(C)Nc2c(C)cccc2C)[nH]1 (stereo not drawn) [Compound 11A] | 0 |
| CCc1cccc(CC)c1NCc1nnc(C)[nH]1 [Compound 5A] | 0 |
| Cc1nnc(CN(C(=O)CCl)c2c(C)cccc2C)o1 [Compound 1B, N-(5-methyl-1,3,4-oxadiazol-2-ylmethyl)-2,6-dimethyl-alpha-chloroacetanilide] | 90 |
| Cc1cccc(C)c1N(Cc1nnc(S)[nH]1)C(=O)CCl [Compound 18B] | 0 |

tested on: Crabgrass (Digitaria sanguinalis); assay: Post-Emergent Test, herbicidal effectiveness; format: in vivo; conditions: post-emergence, 504 h, 33 micrograms per cm^2, 3 weeks, 0-to-100 scale, read-out: Herbicidal Effectiveness, % Control Post, C

| Compound | pest or weed control at 5000 µg/mL, 33 µg/cm2 [%] |
| --- | --- |
| Cc1cccc(C)c1NCc1nnc(S)[nH]1 [Compound 18A] | 0 |
| CCc1cccc(C)c1N(Cc1nnc[nH]1)C(=O)CCl [Compound 17B] | 75 |
| Cc1nnc(C(C)Nc2c(C)cccc2C)[nH]1 (stereo not drawn) [Compound 11A] | 0 |
| CCc1cccc(CC)c1NCc1nnc(C)[nH]1 [Compound 5A] | 0 |
| Cc1nnc(CN(C(=O)CCl)c2c(C)cccc2C)o1 [Compound 1B, N-(5-methyl-1,3,4-oxadiazol-2-ylmethyl)-2,6-dimethyl-alpha-chloroacetanilide] | 0 |
| Cc1cccc(C)c1N(Cc1nnc(S)[nH]1)C(=O)CCl [Compound 18B] | 0 |

tested on: Lambsquarter (Chenopodium album); assay: Post-Emergent Test, herbicidal effectiveness; format: in vivo; conditions: post-emergence, 504 h, 33 micrograms per cm^2, 3 weeks, 0-to-100 scale, read-out: Herbicidal Effectiveness, % Control Post, L

| Compound | pest or weed control at 5000 µg/mL, 33 µg/cm2 [%] |
| --- | --- |
| Cc1cccc(C)c1NCc1nnc(S)[nH]1 [Compound 18A] | 0 |
| CCc1cccc(C)c1N(Cc1nnc[nH]1)C(=O)CCl [Compound 17B] | 65 |
| Cc1nnc(C(C)Nc2c(C)cccc2C)[nH]1 (stereo not drawn) [Compound 11A] | 0 |
| CCc1cccc(CC)c1NCc1nnc(C)[nH]1 [Compound 5A] | 0 |
| Cc1nnc(CN(C(=O)CCl)c2c(C)cccc2C)o1 [Compound 1B, N-(5-methyl-1,3,4-oxadiazol-2-ylmethyl)-2,6-dimethyl-alpha-chloroacetanilide] | 0 |
| Cc1cccc(C)c1N(Cc1nnc(S)[nH]1)C(=O)CCl [Compound 18B] | 0 |

tested on: Mustard (Brassica arvensis); assay: Post-Emergent Test, herbicidal effectiveness; format: in vivo; conditions: post-emergence, 504 h, 33 micrograms per cm^2, 3 weeks, 0-to-100 scale

| Compound | pest or weed control at 5000 µg/mL, 33 µg/cm2 [%] |
| --- | --- |
| Cc1cccc(C)c1NCc1nnc(S)[nH]1 [Compound 18A] | 0 |
| CCc1cccc(C)c1N(Cc1nnc[nH]1)C(=O)CCl [Compound 17B] | 75 |
| Cc1nnc(C(C)Nc2c(C)cccc2C)[nH]1 (stereo not drawn) [Compound 11A] | 0 |
| CCc1cccc(CC)c1NCc1nnc(C)[nH]1 [Compound 5A] | 0 |
| Cc1nnc(CN(C(=O)CCl)c2c(C)cccc2C)o1 [Compound 1B, N-(5-methyl-1,3,4-oxadiazol-2-ylmethyl)-2,6-dimethyl-alpha-chloroacetanilide] | 0 |
| Cc1cccc(C)c1N(Cc1nnc(S)[nH]1)C(=O)CCl [Compound 18B] | 0 |

tested on: Pigweed (Amaranthus retroflexus); assay: Post-Emergent Test, herbicidal effectiveness; format: in vivo; conditions: post-emergence, 504 h, 33 micrograms per cm^2, 3 weeks, 0-to-100 scale, read-out: Herbicidal Effectiveness, % Control Post, P

| Compound | pest or weed control at 5000 µg/mL, 33 µg/cm2 [%] |
| --- | --- |
| Cc1cccc(C)c1NCc1nnc(S)[nH]1 [Compound 18A] | 0 |
| CCc1cccc(C)c1N(Cc1nnc[nH]1)C(=O)CCl [Compound 17B] | 65 |
| Cc1nnc(C(C)Nc2c(C)cccc2C)[nH]1 (stereo not drawn) [Compound 11A] | 0 |
| CCc1cccc(CC)c1NCc1nnc(C)[nH]1 [Compound 5A] | 0 |
| Cc1nnc(CN(C(=O)CCl)c2c(C)cccc2C)o1 [Compound 1B, N-(5-methyl-1,3,4-oxadiazol-2-ylmethyl)-2,6-dimethyl-alpha-chloroacetanilide] | 0 |
| Cc1cccc(C)c1N(Cc1nnc(S)[nH]1)C(=O)CCl [Compound 18B] | 0 |

tested on: Watergrass (Echinochloa); assay: Post-Emergent Test, herbicidal effectiveness; format: in vivo; conditions: post-emergence, 504 h, 33 micrograms per cm^2, 3 weeks, 0-to-100 scale, read-out: Herbicidal Effectiveness, % Control Post, W

| Compound | pest or weed control at 5000 µg/mL, 33 µg/cm2 [%] |
| --- | --- |
| Cc1cccc(C)c1NCc1nnc(S)[nH]1 [Compound 18A] | 0 |
| CCc1cccc(C)c1N(Cc1nnc[nH]1)C(=O)CCl [Compound 17B] | 75 |
| Cc1nnc(C(C)Nc2c(C)cccc2C)[nH]1 (stereo not drawn) [Compound 11A] | 0 |
| CCc1cccc(CC)c1NCc1nnc(C)[nH]1 [Compound 5A] | 0 |
| Cc1nnc(CN(C(=O)CCl)c2c(C)cccc2C)o1 [Compound 1B, N-(5-methyl-1,3,4-oxadiazol-2-ylmethyl)-2,6-dimethyl-alpha-chloroacetanilide] | 0 |
| Cc1cccc(C)c1N(Cc1nnc(S)[nH]1)C(=O)CCl [Compound 18B] | 0 |

tested on: Wild Oats (Avena fatua); assay: Post-Emergent Test, herbicidal effectiveness; format: in vivo; conditions: post-emergence, 504 h, 33 micrograms per cm^2, 3 weeks, 0-to-100 scale, read-out: Herbicidal Effectiveness, % Control Post, O

| Compound | pest or weed control at 5000 µg/mL, 33 µg/cm2 [%] |
| --- | --- |
| Cc1cccc(C)c1NCc1nnc(S)[nH]1 [Compound 18A] | 0 |
| CCc1cccc(C)c1N(Cc1nnc[nH]1)C(=O)CCl [Compound 17B] | 60 |
| Cc1nnc(C(C)Nc2c(C)cccc2C)[nH]1 (stereo not drawn) [Compound 11A] | 0 |
| CCc1cccc(CC)c1NCc1nnc(C)[nH]1 [Compound 5A] | 0 |
| Cc1nnc(CN(C(=O)CCl)c2c(C)cccc2C)o1 [Compound 1B, N-(5-methyl-1,3,4-oxadiazol-2-ylmethyl)-2,6-dimethyl-alpha-chloroacetanilide] | 0 |
| Cc1cccc(C)c1N(Cc1nnc(S)[nH]1)C(=O)CCl [Compound 18B] | 0 |
